Molecular target: PIP5K1B (Homo sapiens, UniProt O14986)
Assay: cell-free kinase assay (Thermo Fisher SelectScreen, ADP detection), 10-point dose response; […] inhibition at […]
Type: biochemical

Sequence of PIP5K1B (O14986 whole entry): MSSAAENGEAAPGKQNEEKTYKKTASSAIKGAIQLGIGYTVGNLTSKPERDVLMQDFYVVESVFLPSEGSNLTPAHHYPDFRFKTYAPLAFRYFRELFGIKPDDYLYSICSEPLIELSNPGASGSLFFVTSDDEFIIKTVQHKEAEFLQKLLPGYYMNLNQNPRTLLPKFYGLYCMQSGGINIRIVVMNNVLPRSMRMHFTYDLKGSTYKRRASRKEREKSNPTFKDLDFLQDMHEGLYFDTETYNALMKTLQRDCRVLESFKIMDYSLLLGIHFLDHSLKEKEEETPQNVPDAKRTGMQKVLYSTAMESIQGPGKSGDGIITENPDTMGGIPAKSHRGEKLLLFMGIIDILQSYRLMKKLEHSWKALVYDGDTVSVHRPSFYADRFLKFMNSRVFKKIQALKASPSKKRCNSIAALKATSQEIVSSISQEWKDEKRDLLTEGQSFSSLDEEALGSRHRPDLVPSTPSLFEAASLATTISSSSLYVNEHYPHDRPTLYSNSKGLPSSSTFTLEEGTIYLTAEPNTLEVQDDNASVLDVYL

Fc1ccc(Nc2nc(Nc3ccc(-c4nc5ccccc5[nH]4)cc3)nc(N3CCOCC3)n2)cc1 [15g, N2-[4-(1H-benzimidazol-2-yl)phenyl]-N4-(4-fluorophenyl)-6-(4-morpholinyl)-1,3,5-triazine-2,4-diamine]
IC50: 281 nM
